Columns and labels:
Test in all cases: competitive isoTOP-ABPP
Assay type in all cases: binding
[1] = molecular target: T1, CNOT4 CCR4-NOT transcription complex subunit 4 (Homo sapiens, UniProt O95628); settings: for isoTOP-ABPP ratio (R) at liganded lysine O95628_K134: 50 uM, in vitro, sol, 231
T1 construct: isoTOP-ABPP experiments performed in cell lysates (in vitro); endogenous in cells; host or cells: MDA-MB-231 soluble lysate
T1 sequence (O95628 1-575): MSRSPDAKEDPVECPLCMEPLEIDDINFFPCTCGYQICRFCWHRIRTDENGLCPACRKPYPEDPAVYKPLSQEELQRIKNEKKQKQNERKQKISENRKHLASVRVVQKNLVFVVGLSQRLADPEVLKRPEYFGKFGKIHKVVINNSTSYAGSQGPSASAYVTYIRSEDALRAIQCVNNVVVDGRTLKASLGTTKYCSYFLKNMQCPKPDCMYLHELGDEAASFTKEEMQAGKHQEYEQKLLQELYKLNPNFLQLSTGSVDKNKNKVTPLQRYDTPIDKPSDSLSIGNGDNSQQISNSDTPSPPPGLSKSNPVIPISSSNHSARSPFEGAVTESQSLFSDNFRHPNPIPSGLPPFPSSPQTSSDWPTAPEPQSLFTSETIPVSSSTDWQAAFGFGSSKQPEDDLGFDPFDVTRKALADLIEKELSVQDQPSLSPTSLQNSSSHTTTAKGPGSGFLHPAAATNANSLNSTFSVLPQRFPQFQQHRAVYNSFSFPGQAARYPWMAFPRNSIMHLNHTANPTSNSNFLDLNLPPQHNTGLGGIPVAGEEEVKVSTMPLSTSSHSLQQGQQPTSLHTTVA
In short: (§1)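 Fragments at 50 μM (activated esters) or 100 μM (guanidinylating agents) were incubated with 0.5 ml lysate before probe labeling. After 0.1 mM STP-alkyne for 1 h, samples were clicked to isotopically distinct TEV tags, and R taken as DMSO-over-compound MS1 peak-area ratio.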

LMNA Prelamin-A/C = molecular target: T2, LMNA Prelamin-A/C (Homo sapiens, UniProt P02545); settings: for isoTOP-ABPP ratio (R) at liganded lysine P02545_K135: 50 uM, in vitro, sol, 231
T2 construct: isoTOP-ABPP experiments performed in cell lysates (in vitro); endogenous in cells; host or cells: MDA-MB-231 soluble lysate
T2 sequence (P02545 1-664): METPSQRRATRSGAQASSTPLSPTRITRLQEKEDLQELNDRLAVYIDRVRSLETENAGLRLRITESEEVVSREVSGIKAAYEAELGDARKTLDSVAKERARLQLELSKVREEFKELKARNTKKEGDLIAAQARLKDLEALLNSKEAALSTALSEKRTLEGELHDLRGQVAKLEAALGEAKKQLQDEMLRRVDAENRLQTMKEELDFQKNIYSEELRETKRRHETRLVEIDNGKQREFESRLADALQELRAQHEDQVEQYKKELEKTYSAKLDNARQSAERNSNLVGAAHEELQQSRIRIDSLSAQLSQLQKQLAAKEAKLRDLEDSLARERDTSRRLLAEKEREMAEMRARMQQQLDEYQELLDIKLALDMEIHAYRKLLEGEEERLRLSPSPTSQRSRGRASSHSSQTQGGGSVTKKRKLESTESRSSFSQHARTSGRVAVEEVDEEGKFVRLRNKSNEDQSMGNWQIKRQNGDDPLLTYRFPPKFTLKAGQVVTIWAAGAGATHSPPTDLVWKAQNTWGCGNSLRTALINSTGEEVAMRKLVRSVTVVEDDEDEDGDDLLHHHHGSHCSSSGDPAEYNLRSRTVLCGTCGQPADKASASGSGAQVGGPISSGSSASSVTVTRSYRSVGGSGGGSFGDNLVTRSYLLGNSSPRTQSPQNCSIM
In short: as §1

[2] = molecular target: T3, RQCD1 Cell differentiation protein RCD1 homolog (Homo sapiens, UniProt Q92600); settings: for isoTOP-ABPP ratio (R) at liganded lysine Q92600_K230: 50 uM, in vitro, sol, 231
T3 construct: isoTOP-ABPP experiments performed in cell lysates (in vitro); endogenous in cells; host or cells: soluble proteome of human cancer cell lines (MDA-MB-231; Ramos and Jurkat also prepared)
In short: as §1

T3 sequence (Q92600 whole entry): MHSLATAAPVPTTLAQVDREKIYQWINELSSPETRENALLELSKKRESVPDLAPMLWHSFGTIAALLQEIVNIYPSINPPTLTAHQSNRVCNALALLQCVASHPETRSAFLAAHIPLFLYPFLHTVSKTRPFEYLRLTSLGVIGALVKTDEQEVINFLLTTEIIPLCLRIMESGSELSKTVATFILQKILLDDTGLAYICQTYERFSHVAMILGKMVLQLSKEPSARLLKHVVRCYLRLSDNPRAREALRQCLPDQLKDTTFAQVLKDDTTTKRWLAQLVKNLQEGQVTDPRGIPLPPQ

Structure (SMILES)	isoTOP-ABPP ratio, lysine O95628_K134 ([1]; 50 uM_231_sol_in vitro)	isoTOP-ABPP ratio, lysine P02545_K135 (LMNA Prelamin-A/C; 50 uM_231_sol_in vitro)	isoTOP-ABPP ratio, lysine Q92600_K230 ([2]; 50 uM_231_sol_in vitro)	other results
O=C(Oc1ccc([N+](=O)[O-])cc1[N+](=O)[O-])C(c1ccccc1)(c1ccccc1)c1ccccc1 [fragment 42, 2,4-Dinitrophenyl 2,2,2-triphenylacetate]				isoTOP-ABPP ratio (R) at liganded lysine O95628_K134 [1]: 1.0; isoTOP-ABPP ratio (R) at liganded lysine P02545_K135 (LMNA Prelamin-A/C): 1.0; isoTOP-ABPP ratio (R) at liganded lysine Q92600_K230 [2]: 0.8
CC(=O)Oc1ccc([N+](=O)[O-])cc1[N+](=O)[O-] [fragment 43, 2,4-Dinitrophenyl acetate]				isoTOP-ABPP ratio (R) at liganded lysine O95628_K134 [1]: 1.3; isoTOP-ABPP ratio (R) at liganded lysine P02545_K135 (LMNA Prelamin-A/C): 20.0; isoTOP-ABPP ratio (R) at liganded lysine Q92600_K230 [2]: 6.8
N#Cc1ccc(C(=O)Oc2ccc([N+](=O)[O-])cc2[N+](=O)[O-])cc1 [fragment 44, 2,4-Dinitrophenyl 4-cyanobenzoate]	2.0	0.9	1.0	
O=C(CCc1ccc2c(c1)OCO2)Oc1ccc([N+](=O)[O-])cc1[N+](=O)[O-] [fragment 45, 2,4-Dinitrophenyl 3-(benzo[d][1,3]dioxol-5-yl)propanoate]	2.8	0.9	1.7	
O=C(ON1C(=O)CCC1=O)c1cc(C(F)(F)F)cc(C(F)(F)F)c1 [fragment 46, 3,5-Bis(trifluoromethyl)benzoic acid NHS ester]	5.2	0.7	1.1	
O=C(Oc1c(F)c(F)c(C(F)(F)F)c(F)c1F)c1cc(C(F)(F)F)cc(C(F)(F)F)c1 [fragment 47, 2,3,5,6-Tetrafluoro-4-(trifluoromethyl)phenyl 3,5-bis(trifluoromethyl)benzoate]	1.5	1.2	0.8	
COC(=O)NC(=NC(=O)OCC1c2ccccc2-c2ccccc21)n1cccn1 [fragment 49, N-Methoxycarbonyl-N′-9-fluorenylmethoxycarbonyl-pyrazole-1-carboxamidine]				isoTOP-ABPP ratio, lysine O95628_K134 ([1]; 100 uM_231_sol_in vitro): 1.4; isoTOP-ABPP ratio, lysine P02545_K135 (LMNA Prelamin-A/C; 100 uM_231_sol_in vitro): 1.1; isoTOP-ABPP ratio, lysine Q92600_K230 ([2]; 100 uM_231_sol_in vitro): 1.1
CC(C)(C)OC(=O)N=C(NC(=O)OC(C)(C)C)n1cccn1 [fragment 50, reference compound]				isoTOP-ABPP ratio, lysine O95628_K134 ([1]; 100 uM_231_sol_in vitro): 1.7; isoTOP-ABPP ratio, lysine P02545_K135 (LMNA Prelamin-A/C; 100 uM_231_sol_in vitro): 1.3; isoTOP-ABPP ratio, lysine Q92600_K230 ([2]; 100 uM_231_sol_in vitro): 1.0
NC(=O)c1cc(C(F)(F)F)cc(C(F)(F)F)c1 [fragment 51, reference compound]	0.9	1.0	0.9	

Source: US20210255193A1, “LYSINE REACTIVE PROBES AND USES THEREOF” (The Scripps Research Institute, priority 2017, published 2021)
